Several values for one entry are separate records, joined by “and”; a condition that tells them apart may be missing. Equal entries are not always repeated.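 Following 48 hours of exposure in 96-well plates, responses at five concentrations were used to interpolate endpoints linearly. GI50 = concentration required for 50% inhibition of growth. TGI marks complete inhibition of growth.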
What was measured:
Assay in all cases: NCI-60 cell line screen, 48 h
HCT-15 colon = test system: HCT-15 colon
NCI/ADR-RES ovarian = test system: NCI/ADR-RES ovarian
CCRF-CEM leukemia = test system: CCRF-CEM leukemia
NCI-H460 lung = test system: NCI-H460 lung
COLO 205 colon = test system: COLO 205 colon
CAKI-1 renal = test system: CAKI-1 renal
NCI-H522 lung = test system: NCI-H522 lung
OVCAR-5 ovarian = test system: OVCAR-5 ovarian
HT29 colon = test system: HT29 colon
SN12C renal = test system: SN12C renal

SMILES	GI50 (HCT-15 colon)	TGI (HCT-15 colon)	GI50 (NCI/ADR-RES ovarian)	TGI (NCI/ADR-RES ovarian)	GI50 (CCRF-CEM leukemia)	TGI (CCRF-CEM leukemia)	GI50 (NCI-H460 lung)	TGI (NCI-H460 lung)	GI50 (COLO 205 colon)	TGI (COLO 205 colon)	GI50 (CAKI-1 renal)	TGI (CAKI-1 renal)	GI50 (NCI-H522 lung)	TGI (NCI-H522 lung)	GI50 (OVCAR-5 ovarian)	TGI (OVCAR-5 ovarian)	GI50 (HT29 colon)	TGI (HT29 colon)	GI50 (SN12C renal)	TGI (SN12C renal)
CO[C@@H]1CCN(c2nccc(Nc3cc4c(C(C)C)ccc(N5CC(CS(C)(=O)=O)[C@H]5C)c4cn3)n2)C[C@@H]1F (some centres not stated)	2.84 µM	14.4 µM	2.81 µM	9.74 µM	4.55 µM	> 100 µM	3.51 µM	20.5 µM	4.71 µM	> 100 µM	2.32 µM	> 100 µM	1.69 µM	8.25 µM	6.36 µM	> 100 µM	3.1 µM	12.1 µM	3.35 µM	> 100 µM
Cc1cc(-c2nnc(/C=C/c3ccc4c(c3)OCO4)o2)n[nH]1	11.4 µM	> 50 µM	7.33 µM	21.4 µM	2.05 µM	19.1 µM	15.1 µM	> 50 µM	15.4 µM	> 50 µM	3.89 µM	> 50 µM	8.15 µM	26.7 µM	38.5 µM	> 50 µM	13.8 µM	43.4 µM	30 µM	> 50 µM
C[C@H]1C/C=C/[C@H]2[C@@H]3O[C@]3(C)[C@@H](C)[C@H]3[C@H](Cc4ccccc4)NC(=O)[C@]32OC(=O)O/C=C/[C@@](C)(O)C1=O	–	56.6 µM	34 µM and 33.3 µM	> 81.9 µM and 125 µM and 160 µM	0.0125 µM and 0.025 µM	67.7 µM and 84.6 µM and 71.5 µM	0.0125 µM and 0.025 µM	43.8 µM and 125 µM and 36.9 µM	0.0194 µM and 0.0125 µM and 0.025 µM	49.2 µM and 98.6 µM and 70.8 µM	–	0.0428 µM	0.0125 µM and 0.025 µM	4.24 µM and 12.3 µM and 39.8 µM	–	> 95.4 µM	0.0465 µM and 0.025 µM	99.2 µM and 125 µM and > 250 µM	< 0.025 µM	–
Nc1c(C(=O)Nc2ccccn2)sc2nc3c(cc12)C(O)CCC3 (configuration not stated)	1.69 µM	> 50 µM	1.83 µM	> 50 µM	0.906 µM	> 50 µM	1.88 µM	> 50 µM	2.51 µM	> 50 µM	2.92 µM	> 50 µM	0.815 µM	2.02 µM	2.54 µM	> 50 µM	1.55 µM	> 50 µM	2.57 µM	> 50 µM
CC(C)(C)OC(=O)NCCCCn1c2c(c3ccccc3c1=O)C(=O)c1ccccc1-2	35.3 µM	> 100 µM	15.7 µM	45.7 µM	9.52 µM	> 100 µM	5.9 µM	34.8 µM	44 µM	> 100 µM	10.7 µM	37.2 µM	27 µM	> 100 µM	44.7 µM	> 100 µM	32.4 µM	> 100 µM	23.1 µM	69.3 µM
CC1=C(/C=C/C(=O)CC(=O)/C=C/C2=C(C)CCCC2(C)C)C(C)(C)CCC1	30.8 µM	> 100 µM	31.4 µM	> 100 µM	5.22 µM	31 µM	18.6 µM	82.1 µM	35.9 µM	> 100 µM	19.1 µM	> 100 µM	26.5 µM	> 100 µM	77 µM	> 100 µM	28.3 µM	> 100 µM	40.3 µM	> 100 µM
CC(C)(C)c1cc(C(=O)Nc2ccc(C(=O)NCCN)cc2)cc(C(C)(C)C)c1	4.75 µM	19.4 µM	14.7 µM	35 µM	2.54 µM	7.28 µM	1.93 µM	3.73 µM	1.85 µM	3.77 µM	15.5 µM	32.9 µM	2.41 µM	7.63 µM	6.07 µM	22.8 µM	2 µM	5.19 µM	1.98 µM	3.9 µM
[N-]=[N+]=NCCCn1c2c(c3ccc([N+](=O)[O-])cc3c1=O)C(=O)c1cc3c(cc1-2)OCO3	1.42 µM	> 100 µM	< 0.0114 µM	< 0.041 µM	< 0.01 µM	0.0679 µM	< 0.01 µM	0.501 µM	0.585 µM	> 100 µM	< 0.01 µM	< 0.0152 µM	0.109 µM	0.844 µM	0.215 µM	2.1 µM	–	> 100 µM	< 0.0106 µM	0.95 µM
O=C1CC[C@H](N2Cc3c(OCc4ccc(CN5CCOCC5)cc4)cccc3C2=O)C(=O)N1	> 100 µM	> 100 µM	> 100 µM	> 100 µM	> 100 µM	> 100 µM	> 100 µM	> 100 µM	> 100 µM	> 100 µM	> 100 µM	> 100 µM	> 100 µM	> 100 µM	> 100 µM	> 100 µM	> 100 µM	> 100 µM	> 100 µM	> 100 µM
CN1CCN(c2ccc(OC(F)(F)F)c(Nc3ncc4c(n3)-c3c(c(C(N)=O)nn3CCO)CC4)c2)CC1	0.213 µM and 0.266 µM	> 100 µM	1.19 µM and 1.04 µM	> 62.6 µM	0.0197 µM and 0.0283 µM	28.5 µM	0.0391 µM and 0.0849 µM	14.9 µM and > 10 µM	0.0255 µM and 0.0275 µM	–	0.584 µM and 0.831 µM	> 44.8 µM	0.03 µM and 0.0265 µM	–	0.055 µM and 0.0577 µM	51.8 µM and > 10 µM	0.0349 µM and 0.0348 µM	> 82.9 µM	1.13 µM and 0.721 µM	20.7 µM and > 10 µM
Cc1ccc(C(=O)NCCCOc2ccc(N3C(N)=NC(N)=NC3(C)C)cc2Cl)cc1S(=O)(=O)F	> 100 µM	> 100 µM	> 100 µM	> 100 µM	5.33 µM	> 100 µM	8.44 µM	> 100 µM	38.1 µM	> 100 µM	> 100 µM	> 100 µM	61.7 µM	> 100 µM	> 100 µM	> 100 µM	6.61 µM	> 100 µM	6.54 µM	> 100 µM
CCN(CC)c1c(-c2ccccc2)n[nH]c1C(=O)OC	19 µM	40.9 µM	19.2 µM	37.4 µM	22.8 µM	71 µM	30.3 µM	> 100 µM	17.7 µM	64 µM	25.8 µM	55.5 µM	18.5 µM	50.7 µM	31 µM	> 100 µM	19.4 µM	33.5 µM	24.4 µM	40.3 µM
Cc1ccc(S(=O)(=O)OCC#CCOS(=O)(=O)c2ccc(C)cc2)cc1	3.2 µM	14.9 µM	2.12 µM	5.93 µM	1.96 µM	5.79 µM	1.8 µM	4.07 µM	2.42 µM	5.72 µM	0.512 µM	1.5 µM	1.19 µM	3.12 µM	4.99 µM	14.5 µM	1.87 µM	4.17 µM	3.89 µM	17.3 µM
CCOC(=O)Nc1nc2ccccc2[nH]1	3.89 µM and 4.14 µM	> 100 µM	3.55 µM and 3.47 µM	35.3 µM and > 25.9 µM	3.6 µM and 4.41 µM	> 100 µM	4.27 µM and 3.6 µM	> 100 µM	3.62 µM and 3.27 µM	15.2 µM and > 32.6 µM	3.84 µM and 3.73 µM	> 100 µM	3.78 µM and 4.99 µM	> 79.3 µM	15.8 µM and > 26.1 µM	> 100 µM	3.96 µM and 3.99 µM	> 100 µM	–	> 100 µM
OB(O)c1ccccc1C#Cc1ccccc1B(O)O	–	> 100 µM	–	> 100 µM	–	> 100 µM	–	48.2 µM	–	35.1 µM	–	22.1 µM	–	41.7 µM	–	81.4 µM	–	> 100 µM	–	68 µM
